Reference: PubChem BioAssay (NCI)
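All cell lines were grown in 96-well plates and treated with compound for 48 hours. GI50 = concentration required for 50% inhibition of growth. The concentration for full growth arrest is given as TGI.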

System: P388 leukemia
Assay: NCI tumour cell line growth inhibition, 48 h

| SMILES | TGI | GI50 |
| --- | --- | --- |
| Cc1cc(-c2ccc(N=Nc3ccc4c(S(=O)(=O)O)cc(S(=O)(=O)O)c(N)c4c3O)c(C)c2)ccc1N=Nc1ccc2c(S(=O)(=O)O)cc(S(=O)(=O)O)c(N)c2c1O | > 100 µM |  |
| [C-]#[O+].[Cl][Sn]([Cl])[Cl].[Cl][Sn]([Cl])[Cl].[Pt].c1cnc2c(c1)ccc1cccnc12 | 5.68 µM | 2.12 µM |
